Laboratory results published in patent publication US5942494A, “Stimulation of gene expression and synthesis of heat shock protein 72/73 (HSP 70)” (The Trustees of Columbia University in the City of New York, priority 1996, dated 1999).

What was measured:
Hsp70 = Hsp70 levels by denaturing immunoprecipitation of [3H]-leucine radiolabeled HepG2 cells; assay type: cell-based, human; settings: HepG2, 4 hours; MG132 10 μM or 30 μM; lactacystin 10 μM; 30 min radiolabeling
Protocol: The HepG2 cell culture conditions were maintained as previously described (Dixon, et al., 1991). The cells were seeded into collagen-pre-coated dishes or six-well tissue culture plates and grown in complete medium containing minimum essential medium (MEM) with 0.1 mM nonessential amino acids, 1.0 mM sodium pyruvate, penicillin/streptomycin, and 10% fetal bovine serum. Cells were fed fresh complete medium every 3 days and maintained in a 5% CO2 incubator. All experiments were performed by using exponentially growing cells at 90-95% confluency. For heat shock treatment, the dishes were sealed with Parafilm and immersed in a water bath at 42° C. for indicated durations of time. Cells were incubated with ALLN alone at indicated concentrations or combined with other chemicals at 37° C. Cells were also incubated with different protease inhibitors alone at indicated concentrations or combined with other chemicals at 37° C.
(§1) HepG2 cells were preincubated for 4 hours in serum-free MEM and then radiolabeled with ^3 H-Leucine (150 μCi/ml) in a serum-free, leucine-free medium. Preincubation and labeling media each contained either 1.5% bovine serum albumin (BSA) alone, or BSA plus ALLN (40 μg/ml except as otherwise indicated), or BSA plus other protease inhibitors at concentrations indicated in the figure legends. At the indicated times, cells were removed from the 37° C. incubator and placed on ice, washed with cold phosphate-buffer saline (PBS) twice and lysed with lysis buffer containing 1% Triton X-100 (TX100), 1% deoxycholic acid (DOC) and 0.1% SDS in PBS containing proteinase inhibitors: 2 mM phenylmethylsulfonyl fluoride (PMSF); 2 μg/ml ALLN; 2 μg/ml leupeptin; and 2 μg/ml aprotinin. After a 30 min. incubation with lysis buffer at 4° C., the lysates were centrifuged at 14,000 g in a microcentrifuge for 5 min., and the supernatants were adjusted to 1% SDS concentration and boiled for 5 min. to denature the proteins. 1% TX100 was then added to dilute the lysates to a final concentration of 0.1% SDS. Cell lysates containing equal amounts of trichloroacetic acid (TCA)-insoluble radioactivity were used for immunoprecipitations by incubating with individual monoclonal antibody (1 μg/ml) for 2.5 hours at 4° C. Protein-A Sepharose 4B was added afterwards and the lysates incubated for another 1.5 hours at 4° C. to collect the immunocomplexes. After washing four times with 1×NET buffer (containing 0.5% TX100, 0.1% SDS), the immunocomplexes were mixed with sample buffer and boiled for 5 min. Following centrifugation, the supernatants were aliquoted for scintillation counting and for 3-15% gradient polyacrymide gel electrophoresis (SDS-PAGE) . The gels were later subjected to fluorography. All values are presented as the mean ± S.D. from three individual experiments except as otherwise indicated.
Denaturing immunoprecipitation was chosen because Hsp70 is a major cytosolic chaperone protein and it is co-immunoprecipitated with a number of other proteins under non-denaturingconditions (Beckmann, et al., 1990; Zhou, et al., 1995).

HepG2 cells = assay: Total incorporation of radiolabel (TCA cpm) as indicator of cell toxicity, HepG2; assay type: cell-based, human; settings: HepG2, 4 hours; MG132 10 or 30 μM; lactacystin 10 μM
Protocol: as §1

[1] = tested on: cysteine protease, serine protease, trypsin or chymotrypsin; settings: even upon extended exposure, Ward, et al., 1995, Fenteany; cited from earlier work

CC(=O)N[C@@H](CSC(=O)[C@]1([C@@H](O)C(C)C)NC(=O)[C@H](C)[C@@H]1O)C(=O)O [lactacystin]
Induction of Hsp70 levels by proteasome inhibitors (Hsp70): induced Hsp70 levels dramatically
Toxicity to the cells (TCA-precipitable radioactivities) (HepG2 cells): without obvious toxicity
Effect on cysteine protease, serine protease, trypsin or chymotrypsin [1]: no detectable effect
